Assay results as given in patent publication US20210228497A1, “New Medical Devices, Delivery Vehicles and Manufacturing Thereof” (Remy Biosciences, Inc., priority 2018, published 2021).

Experiment: Saturation concentration of CBD in adhesive matrix (turbidity / flux plateau)
Format: physicochemical

SMILES: C=C(C)[C@@H]1CCC(C)=C[C@H]1c1c(O)cc(CCCCC)cc1O [CBD, cannabidiol]
- Saturation concentration of CBD in acrylate adhesive Durotak 87-2287 (Durotak 87-2287 adhesive matrix): 30%
- Saturation concentration of CBD in PIB adhesive (un-tackified PIB adhesive matrix): 12%
